Legend:
[1] = system: infants with atopic dermatitis; assay: Adverse events recorded during the 18 month study; assay type: in vivo
Experimental: At each of the nine visits, the atopy status, any concurrent illnesses, concomitant medications and procedures were recorded. Patients underwent a physical examination, including the measurement of vital signs.
Adverse events were recorded by the parents on diary cards and discussed with the investigator at each visit. Serious adverse events had to be reported immediately.
(§1) Oral solutions of cetirizine dihydrochloride (10 mg/ml) and matching placebo, similar in appearance and taste were used. The recommended study dosage was 0.25 mg cetirizine/kg b.i.d. (b.i.d.=“bis in die”, 2 times a day).

[2] = system: onset of asthma in young children with atopic dermatitis; assay: 18 month double blind, placebo-controlled study of cetirizine dihydrochloride for preventing the onset of asthma; assay type: in vivo, infants; settings: for RR for developing asthma when cetirizine treated: versus placebo
Source text: The aim of the study relative to the clinical effect of cetirizine dihydrochloride was to establish on the intention to treat (ITT population) whether an 18 month cetirizine dihydrochloride treatment can prevent the onset of asthma in young children with atopic dermatitis, when compared to placebo. Subgroups based on the baseline status of biological markers as well as specific asthmatic patients (i.e. wheezers only; asthma onset date at least 3 months after inclusion) were foreseen as well. It was considered that a 30% reduction of the incidence of asthma is clinically relevant. Secondary parameters of efficacy included the severity of asthma and atopic dermatitis.
All the infants had to have at least one parent or sibling with a history of atopic disease (atopic dermatitis, allergic rhinitis or asthma). Excluded were infants with asthma, or with a history of any episodes of wheezing or nocturnal cough as well as any condition likely to obscure the diagnosis of asthma (Guidelines for the diagnosis and management of asthma. National Asthma Education and Prevention Program. Expert Panel Report II. National Institute of Health publication 97-4051; International Report. International consensus report on diagnosis and treatment of asthma. National Heart, Lung and Blood Institute. National Institute of Health publication 92-3091).
The study was a prospective, randomized, double blind, parallel group, and placebo-controlled study with cetirizine dihydrochloride.
Study treatment lasted for 18 months. After the treatment period, patients entered a long-term follow-up period.
The primary end-point for efficacy was the onset of asthma, defined as 3 episodes of nocturnal cough with sleep disturbances or wheezing, separated by at least 7 days, in a clinical setting where asthma is likely and conditions other than allergy have been excluded.
Serum total and specific (grass pollen, cow's milk, egg, house dust mites and cat dander) IgE antibody levels were determined using the Pharmacia CAP® system (Pharmacia & Upjohn, Uppsala, Sweden). These analyses were made at baseline, and after 3, 12 and 18 months of treatment by a central laboratory (Institut Pasteur—Lille, France) according to instructions of the manufacturer and routine clinical laboratory performances.
as §1
Sample size was based on an expected cumulative incidence of asthma in 40% of children in the placebo group after 18 months of treatment. A decrease of 30% of the incidence was considered as clinically relevant.

[3] = subgroup with elevated Eosinophil count at baseline

In the case of `O=C(O)COCCN1CCN(C(c2ccccc2)c2ccc(Cl)cc2)CC1` (centres unmarked) [Cetirizine], the safety in infants ([1]; 18 month treatment, large trial in infants) is reported as “safe product”, the “urticaria (adverse event frequency)” value ([1]; cetirizine group versus 16.1% placebo, p<0.001) is reported as 5.8% and the “adverse event (AE) profiles between groups” value ([1]; cetirizine versus placebo, except for urticaria) is reported as “no significant differences”. The “Occurrence of Asthma by Treatment” value ([2]; ITT population, 18 months, 0.25 mg/kg b.i.d. oral) was “(37.7) %”, the “number of children developing asthma” value ([2]; early treatment initiated between 1 and 2 years of age, atopic dermatitis, sensitized (specific IgE ≧0.35 kUA/l) to grass pollen or house dust mite) was “halved” and the prevention of asthma ([2]; infants with atopic dermatitis and evidence of sensitivity to grass pollen or house dust mite) was “successfully prevents asthma”. The “risk of developing asthma compared with placebo” value ([2]; infants with raised baseline total IgE (≧30 kU/l) or specific IgE antibodies (≧0.35 kUA/l)) was “reduced risk of developing asthma”, the “Occurrence of Asthma by Treatment” value [2, 3] was “(42.7) %” and the “Occurrence of Asthma by Treatment” value ([2]; subgroup with elevated IgE Cat dander (E1) at baseline (≧0.35 kUA/l)) was “(40.6) %”. The “Occurrence of Asthma by Treatment” value ([2]; subgroup with elevated IgE Egg (F1) at baseline (≧0.35 kUA/l)) was “(31.2) %”, the “Occurrence of Asthma by Treatment” value ([2]; subgroup with elevated IgE Grass pollen (GX1) at baseline (≧0.35 kUA/l)) was “(27.8) %” and the “Occurrence of Asthma by Treatment” value ([2]; subgroup with elevated IgE HDM (D1) at baseline (≧0.35 kUA/l)) was “(28.6) %”. The “Occurrence of Asthma by Treatment” value ([2]; subgroup with elevated IgE HDM + Grass pollen at baseline (≧0.35 kUA/l)) was “(34.2) %”, the “Occurrence of Asthma by Treatment” value ([2]; subgroup with elevated IgE Milk (F2) at baseline (≧0.35 kUA/l)) was “(30.7) %” and the “Occurrence of Asthma by Treatment” value ([2]; subgroup with elevated Total IgE (PRIST) at baseline (≧30 kU/l)) was “(38.1) %”. The “RR for developing asthma when cetirizine treated” value (“RR for developing asthma” below) [2, 3] was 0.9, the “RR for developing asthma” value ([2]; subgroup with elevated IgE Cat dander (E1) at baseline) was 0.9 and the “RR for developing asthma” value ([2]; subgroup with elevated IgE Egg (F1) at baseline) was 0.8. For the same molecule, the “RR for developing asthma” value ([2]; subgroup with elevated IgE Grass pollen (GX1) at baseline) was 0.5, the “RR for developing asthma” value ([2]; subgroup with elevated IgE HDM (D1) at baseline) was 0.6 and the “RR for developing asthma” value ([2]; subgroup with elevated IgE HDM + Grass pollen at baseline) was 0.6. The “RR for developing asthma” value ([2]; subgroup with elevated IgE Milk (F2) at baseline) was 0.7 and the “RR for developing asthma” value ([2]; subgroup with elevated Total IgE (PRIST) at baseline) was 0.9.

Reference: US6432961B1, “Method for preventing the onset of asthma” (UCB S.A., priority 1998, dated 2002)
